Assay results taken from US20230082929A1, “METHODS OF GENERATING AND USING SENESCENT-INDUCED CELLS FOR TREATMENT OF CANCER AND COMPOSITIONS RELATING THERETO” (The Wistar Institute of Anatomy and Biology, priority 2020, published 2023).

Legend:
TOP1cc [1] = target: T1, TOP1cc (Homo sapiens, UniProt P11387); assay: Slot blot analysis of TOP1cc levels in purified CCF of senescent cells; assay type: cell-based; parameters: endogenous in cells; host or cells: IMR90 human fibroblasts (senescent or proliferating, with or without shHMGB2); OVCAR3 (with or without HMGB2 knockout); conditions: CCF isolated from HMGB2 knockdown or knockout senescent cells (IMR90, OVCAR3)
T1 sequence (P11387 1-765): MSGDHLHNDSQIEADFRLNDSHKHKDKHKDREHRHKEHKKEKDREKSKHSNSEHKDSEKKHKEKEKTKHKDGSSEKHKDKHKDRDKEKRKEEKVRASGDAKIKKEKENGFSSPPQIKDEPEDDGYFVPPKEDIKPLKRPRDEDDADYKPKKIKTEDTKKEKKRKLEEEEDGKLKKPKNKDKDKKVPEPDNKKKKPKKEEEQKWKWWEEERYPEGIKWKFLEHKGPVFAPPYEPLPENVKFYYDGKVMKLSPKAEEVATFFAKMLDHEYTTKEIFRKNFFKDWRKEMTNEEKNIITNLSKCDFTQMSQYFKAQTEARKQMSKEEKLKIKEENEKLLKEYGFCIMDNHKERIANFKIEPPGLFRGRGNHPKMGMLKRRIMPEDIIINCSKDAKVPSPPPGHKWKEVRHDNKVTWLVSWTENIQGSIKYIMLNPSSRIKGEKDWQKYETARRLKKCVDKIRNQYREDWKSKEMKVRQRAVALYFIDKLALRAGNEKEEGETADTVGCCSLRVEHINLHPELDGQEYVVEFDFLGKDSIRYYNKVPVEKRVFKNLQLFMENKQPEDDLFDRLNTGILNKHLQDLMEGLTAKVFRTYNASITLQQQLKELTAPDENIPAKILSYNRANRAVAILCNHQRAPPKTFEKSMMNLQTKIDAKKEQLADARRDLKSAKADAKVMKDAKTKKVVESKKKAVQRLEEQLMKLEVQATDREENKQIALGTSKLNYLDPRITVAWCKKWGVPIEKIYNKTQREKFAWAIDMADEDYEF
Method: A CCF purification protocol was developed by modifying previous protocols (Shimizu et al., 1996; Ly et al., 2017). Briefly, 500 million senescent cells were collected, resuspended, and incubated in DMEM containing 10 μg/mL cytochalasin B for 30 minutes at 37° C. After wash once with ice-cold PBS, the cell pellet was gently dounce homogenized in ice-cold pre-chilled lysis buffer (10 mM Tris-HCl, 2 mM magnesium acetate, 3 mM CaCl2), 0.32 M sucrose, 0.1 mM EDTA, 1 mM DTT, 0.1% NP-40, 0.15 mM spermine, 0.75 mM spermidine, 10 μg/ml cytochalasin B, pH 8.5, 4° C.) with ten slow strokes of a loose-fitting pestle. Release of nuclei was confirmed by DAPI-staining and microscopy. The homogenate was fixed with 1% formaldehyde for 10 minutes, and mixed well with an equal volume of 1.6M sucrose buffer (10 mM Tris-HCl, 5 mM magnesium acetate, 0.1 mM EDTA, 1 mM DTT, 0.3% BSA, 0.15 mM spermine, 0.75 mM spermidine, pH 8.0, 4° C.). A 10 mL portion of homogenate was layered on the top of sucrose buffer gradient (20 mL and 15 mL containing 1.8M and 1.6M of sucrose, respectively) in a 50 mL tissue culture tube. The tubes were centrifuged at 1200×g for 20 minutes at 4° C. After centrifugation, the upper 3 mL of the gradient was discarded, and the next 15 mL containing CCFs was collected. […] DNA concentration was measured using Nanodrop and 5 μg DNA was used for slot blot analysis.

TOP1cc [2] = target: T1, TOP1cc; assay: TOP1cc induction in CPT-treated IMR90 cells (chromatin fragment extraction, slot blot); assay type: cell-based; parameters: endogenous in cells; host or cells: IMR90 human fibroblasts (senescent or proliferating, with or without shHMGB2); conditions: IMR90 cells treated with two doses of CPT (5 μM or 50 μM, 30 minutes)
Method: For chromatin fragments extraction, proliferating IMR90 cells were treated with 5 μM or 50 μM Camptothecin for 30 minutes to induce low or high levels of TOP1cc, respectively. Cells then were incubated with hypotonic buffer (10 mM Tris, pH 7.4, 30 mM NaCl, 3 mM MgCl2, 0.1% NP40), supplemented with protease inhibitor cocktail, on ice for 10 mins (Dou et al., 2017). The cells were then centrifuged at 300×g for 3 mins at 4° C. The supernatant was carefully removed, and the resulting pellets were incubated with benzonase buffer (50 mM Tris pH 7.5, 300 mM NaCl, 0.5% NP40, 2.5 mM MgCl2) with protease inhibitor cocktail, supplemented with 10 U of benzonase (Sigma Cat. No: E1014), on ice, for 30 min. The product was centrifuged again at 300×g for 3 mins at 4° C., and benzonase was inactivated by addition of 15 mM EDTA. The resulting supernatant contains chromatin fragments and soluble nuclear proteins. For the negative controls, buffer without benzonase was used and the resulting supernatant only contains soluble nuclear proteins without chromatin fragments. The product was then diluted 5 times with PBS. Slot blot were performed to confirm the TOP1cc level.
Human Topoisomerase 1 ICE Assay Kit (TopoGEN. Cat. No:TG1020-1) was used to isolate protein-DNA samples which contain TOP1-DNA covalent complex (TOP Ice) for slot blot analysis. […] Quantification was performed using NIH Image J software.

2′3′-cGAMP = 2′3′-cGAMP ELISA in IMR90 cells; assay type: cell-based, human; conditions: senescent IMR90 cells with HMGB2 knockdown
Method: 2′ 3′-cGAMP ELISA Kit (Cayman chemical. Cat. No:501700) was used to analyze the endogenous level of 2′ 3′-cGAMP following the manufacturer's instructions. 1×10^5 IMR90 cells were incubated in 200 μL lysis buffer (ThermoFisher, Cat. No: 78501) on ice for 30 minutes. The 2′ 3′-cGAMP ELISA was performed following the manufacturer's instructions.

STING = STING dimerization by immunoblot in IMR90 cells; assay type: cell-based, human; conditions: senescent IMR90 cells with HMGB2 knockdown
Method: Cells were lysed in 1× sample buffer (2% SDS, 10% glycerol, 0.01% bromophenol blue, 62.5 mM Tris, pH 6.8, and 0.1 M DTT) and heated to 95° C. for 10 min. Protein concentrations were determined using the protein assay dye (Bio-Rad. Cat. No: #5000006) and Nanodrop. An equal amount of total protein was resolved using SDS-PAGE gels and transferred to PVDF membranes at 110 V for 2 hours at 4° C. Membranes were blocked with 5% nonfat milk in TBS containing 0.1% Tween 20 (TBS-T) for 1 hour at room temperature. Membranes were incubated overnight at 4° C. in the primary antibodies in 4% BSA/TBS+0.025% sodium azide. Membranes were washed four times in TBS-T for 5 min at room temperature, after which they were incubated with HRP-conjugated secondary antibodies (Cell Signaling Technology. Cat. No: 7076S, 7074S) for 1 hour at room temperature. After washing four times in TBS-T for 5 min at room temperature, proteins were visualized on film after incubation with SuperSignal West Pico PLUS Chemiluminescent Substrate (Thermo Fisher Scientific. Cat. No: 34580).

CC[C@@]1(O)C(=O)OCc2c1cc1n(c2=O)Cc2cc3ccccc3nc2-1 [CPT, Camptothecin]
TOP1cc levels in CCF (TOP1cc [1]): restored the TOP1cc levels | TOP1cc levels in CCF (TOP1cc [1]; listed as Camptothecin): Rescue of the decrease in TOP1cc levels | TOP1cc induction (TOP1cc [2]): induced TOP1cc in a dose-dependent manner | 2′3′-cGAMP levels (2′3′-cGAMP): rescued | STING dimerization (STING): rescued the suppression of STING dimerization
